Measurements: US20060258729A1, “Antibacterial pyrazole carboxylic acid hydrazides” (priority 2002, published 2006)

Tests used:
B. subtilis pol IIIC = target: T1, B. subtilis pol IIIC (Bacillus subtilis, UniProt P13267); assay: DNA polymerase assay, B. subtilis pol IIIC; type: biochemical; conditions: 80 μg/mL (190-260 μM) final concentration; all four dNTPs
T1 construct: made in house
Procedure: Recombinant, purified pol IIIC and pol IIIE from Bacillus subtilis were obtained using known methods (Hammond et al., Gene 98: 29-36 (1991), regarding pol IIIC; Barnes et al., J. Bacteriol. 184, 3834-3838 (2002), regarding pol IIIE). Recombinant, purified pol IIIE from Escherichia coli was obtained from a commercial source (Enzyco, Denver, Colo.). The enzyme assays were performed in 96-well plate format using the same assay mix for all three enzymes. […] Dilutions of compounds were added to the plate in 1% DMSO (1 μL/well). Assays were initiated by the addition of 0.025 to 0.06 units of enzyme (1 unit is the amount required to incorporate 250 pmoles of [^3H] dTMP in a standard assay), incubated for 10 min at 30° C. and terminated by the addition of 200 μL of cold 10% trichloroacetic acid, 10 mM sodium pyrophosphate. Precipitated labeled DNA was collected on glass fiber filter plates that had been pre-wet with ice cold 1 M HCl, 100 mM sodium pyrophosphate. The plates were washed with the HCl solution followed by ice cold 90% ethanol and then dried and counted in a liquid scintillation counter. […] In addition, percent inhibition values are calculated as the percent reduction in the activity of a DMSO (diluent) control.

B. subtilis pol IIIE = target: T2, B. subtilis pol IIIE (Bacillus subtilis, UniProt O34623); assay: DNA polymerase assay, B. subtilis pol IIIE; type: biochemical; conditions: 80 μg/mL (190-260 μM) final concentration; all four dNTPs
T2 construct: made in house
Procedure: (§1) Recombinant, purified pol IIIC and pol IIIE from Bacillus subtilis were obtained using known methods (Hammond et al., Gene 98: 29-36 (1991), regarding pol IIIC; Barnes et al., J. Bacteriol. 184, 3834-3838 (2002), regarding pol IIIE). Recombinant, purified pol IIIE from Escherichia coli was obtained from a commercial source (Enzyco, Denver, Colo.). The enzyme assays were performed in 96-well plate format using the same assay mix for all three enzymes. Each 25 μL assay contained 30 mM Tris, pH 7.5, 10 mM magnesium acetate, 4 mM dithiothreitol, 20% glycerol, with 10 μM dATP, dCTP, dGTP and dTTP (3H-labelled at 1.44 Ci/mmole) and 0.4 mg/mL activated calf thymus DNA as substrates. Dilutions of compounds were added to the plate in 1% DMSO (1 μL/well). Assays were initiated by the addition of 0.025 to 0.06 units of enzyme (1 unit is the amount required to incorporate 250 pmoles of [^3H] dTMP in a standard assay), incubated for 10 min at 30° C. and terminated by the addition of 200 μL of cold 10% trichloroacetic acid, 10 mM sodium pyrophosphate. Precipitated labeled DNA was collected on glass fiber filter plates that had been pre-wet with ice cold 1 M HCl, 100 mM sodium pyrophosphate. The plates were washed with the HCl solution followed by ice cold 90% ethanol and then dried and counted in a liquid scintillation counter. The calculated IC50 is the concentration needed to inhibit 50% of the DNA polymerase activity in the presence of all four dNTP substrates. In addition, percent inhibition values are calculated as the percent reduction in the activity of a DMSO (diluent) control.

E. coli pol IIIE = target: T3, E. coli pol IIIE (Escherichia coli, UniProt P10443); assay: DNA polymerase assay, E. coli pol IIIE; type: biochemical; conditions: 80 μg/mL (190-260 μM) final concentration; all four dNTPs
T3 construct: purchased Enzyco, Denver, Colo
Procedure: as §1

[1] = test system: Bacillus subtilis strain BD54; assay: Inhibition of bacterial growth (MIC), Bs; type: cell-based; conditions: 16 to 18 hours, 37° C.
Procedure: (§2) Each compound was assayed against a panel of a strain of Bacillus subtilis, of strains of antibiotic-resistant and sensitive Enterococcus and Staphylococcus species, and of a strain of the Gram-negative bacterium Escherichia coli. Compounds were dissolved in DMSO at 100× the desired highest concentration and added to one well of a 96-well microassay plate. Two-fold serial drug dilutions were made across the plate in DMSO to yield 11 concentrations (usually 80-0.078 μg/mL) plus an untreated control. Drugs were then transferred to fresh plates using 1.5 μL per well. Log phase cultures were diluted to yield a concentration of 1×10^5 colony forming units/mL in either LB or BHI medium and transferred to the plates containing drug for a final volume of 150 μL. Each well, including the DMSO controls, contained a final concentration of 1% DMSO. Plates were incubated with shaking at 37° C. for 16 to 18 hours. Cell growth was determined by measuring optical density (570 nm, 1 cm path length) in a microplate reader. MIC (minimum inhibitory concentration) is equivalent to the lowest concentration at which growth is not observed. The bacterial strains and MIC determinations have been well characterized and are described elsewhere (Tarantino et al., Antimicrob. Agents Chemother., 43: 1982-1987 (1999); Daly et al., Antimicrob. Agents Chemother., 44: 2217-2221 (2000)).

[2] = test system: Staphylococcus aureus strain IP 8; assay: Inhibition of bacterial growth (MIC), Sa; type: cell-based; conditions: 16 to 18 hours, 37° C.
Procedure: as §2

S. aureus Smith strain = assay: Inhibition of bacterial growth (MIC), Sm; type: cell-based, Staphylococcus aureus; conditions: 16 to 18 hours, 37° C.
Procedure: as §2

[3] = test system: methicillin-resistant S. aureus strain 1094; assay: Inhibition of bacterial growth (MIC), MRSA; type: cell-based, Staphylococcus aureus; conditions: 16 to 18 hours, 37° C.
Procedure: as §2

[4] = test system: Enterococcus faecalis strain 29212; assay: Inhibition of bacterial growth (MIC), Efcl; type: cell-based; conditions: 16 to 18 hours, 37° C.
Procedure: as §2

[5] = test system: E. faecium clinical isolate; assay: Inhibition of bacterial growth (MIC), Efcm; type: cell-based; conditions: 16 to 18 hours, 37° C.
Procedure: as §2

[6] = test system: vancomycin-resistant Enterococcus strain B42762; assay: Inhibition of bacterial growth (MIC), VRE; type: cell-based; conditions: 16 to 18 hours, 37° C.
Procedure: as §2

[7] = test system: Escherichia coli strain J53; assay: Inhibition of bacterial growth (MIC), Ec; type: cell-based; conditions: 16 to 18 hours, 37° C.
Procedure: as §2

T1 sequence (P13267 whole entry): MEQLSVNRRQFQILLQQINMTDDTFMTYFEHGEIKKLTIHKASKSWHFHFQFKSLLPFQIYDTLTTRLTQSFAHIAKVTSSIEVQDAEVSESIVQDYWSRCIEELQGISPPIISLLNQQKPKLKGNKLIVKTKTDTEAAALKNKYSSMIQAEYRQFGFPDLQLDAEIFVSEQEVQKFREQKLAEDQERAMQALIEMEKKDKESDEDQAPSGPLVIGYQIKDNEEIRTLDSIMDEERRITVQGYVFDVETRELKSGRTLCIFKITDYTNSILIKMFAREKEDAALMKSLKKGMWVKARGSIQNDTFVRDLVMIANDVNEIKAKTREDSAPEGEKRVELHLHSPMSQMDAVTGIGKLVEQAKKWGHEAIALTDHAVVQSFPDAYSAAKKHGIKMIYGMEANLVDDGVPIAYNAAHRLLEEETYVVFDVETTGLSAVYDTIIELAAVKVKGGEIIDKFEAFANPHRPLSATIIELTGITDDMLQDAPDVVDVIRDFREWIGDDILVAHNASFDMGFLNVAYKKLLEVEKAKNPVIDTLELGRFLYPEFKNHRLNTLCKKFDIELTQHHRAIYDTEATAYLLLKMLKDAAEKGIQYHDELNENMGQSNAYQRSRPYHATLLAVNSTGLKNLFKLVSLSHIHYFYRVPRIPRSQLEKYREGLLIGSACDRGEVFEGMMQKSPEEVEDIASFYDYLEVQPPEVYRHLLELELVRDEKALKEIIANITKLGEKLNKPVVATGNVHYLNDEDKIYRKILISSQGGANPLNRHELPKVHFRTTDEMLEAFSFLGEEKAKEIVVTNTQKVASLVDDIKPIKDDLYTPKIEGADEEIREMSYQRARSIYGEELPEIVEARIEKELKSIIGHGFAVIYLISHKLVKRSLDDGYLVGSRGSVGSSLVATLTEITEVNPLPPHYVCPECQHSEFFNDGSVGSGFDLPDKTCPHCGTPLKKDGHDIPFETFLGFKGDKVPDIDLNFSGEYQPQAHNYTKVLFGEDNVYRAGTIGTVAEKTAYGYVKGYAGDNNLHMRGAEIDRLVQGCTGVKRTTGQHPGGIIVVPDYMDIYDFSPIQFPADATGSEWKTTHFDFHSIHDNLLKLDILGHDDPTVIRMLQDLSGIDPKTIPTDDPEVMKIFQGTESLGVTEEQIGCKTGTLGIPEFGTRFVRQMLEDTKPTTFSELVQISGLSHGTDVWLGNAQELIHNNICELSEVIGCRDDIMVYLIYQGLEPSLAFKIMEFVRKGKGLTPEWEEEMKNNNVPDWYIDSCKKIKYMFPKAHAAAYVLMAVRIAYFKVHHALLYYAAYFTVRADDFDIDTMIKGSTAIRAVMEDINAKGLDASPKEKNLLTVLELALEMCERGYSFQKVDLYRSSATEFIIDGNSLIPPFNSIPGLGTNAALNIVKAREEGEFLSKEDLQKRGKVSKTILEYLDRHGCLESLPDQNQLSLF
T2 sequence (O34623 whole entry): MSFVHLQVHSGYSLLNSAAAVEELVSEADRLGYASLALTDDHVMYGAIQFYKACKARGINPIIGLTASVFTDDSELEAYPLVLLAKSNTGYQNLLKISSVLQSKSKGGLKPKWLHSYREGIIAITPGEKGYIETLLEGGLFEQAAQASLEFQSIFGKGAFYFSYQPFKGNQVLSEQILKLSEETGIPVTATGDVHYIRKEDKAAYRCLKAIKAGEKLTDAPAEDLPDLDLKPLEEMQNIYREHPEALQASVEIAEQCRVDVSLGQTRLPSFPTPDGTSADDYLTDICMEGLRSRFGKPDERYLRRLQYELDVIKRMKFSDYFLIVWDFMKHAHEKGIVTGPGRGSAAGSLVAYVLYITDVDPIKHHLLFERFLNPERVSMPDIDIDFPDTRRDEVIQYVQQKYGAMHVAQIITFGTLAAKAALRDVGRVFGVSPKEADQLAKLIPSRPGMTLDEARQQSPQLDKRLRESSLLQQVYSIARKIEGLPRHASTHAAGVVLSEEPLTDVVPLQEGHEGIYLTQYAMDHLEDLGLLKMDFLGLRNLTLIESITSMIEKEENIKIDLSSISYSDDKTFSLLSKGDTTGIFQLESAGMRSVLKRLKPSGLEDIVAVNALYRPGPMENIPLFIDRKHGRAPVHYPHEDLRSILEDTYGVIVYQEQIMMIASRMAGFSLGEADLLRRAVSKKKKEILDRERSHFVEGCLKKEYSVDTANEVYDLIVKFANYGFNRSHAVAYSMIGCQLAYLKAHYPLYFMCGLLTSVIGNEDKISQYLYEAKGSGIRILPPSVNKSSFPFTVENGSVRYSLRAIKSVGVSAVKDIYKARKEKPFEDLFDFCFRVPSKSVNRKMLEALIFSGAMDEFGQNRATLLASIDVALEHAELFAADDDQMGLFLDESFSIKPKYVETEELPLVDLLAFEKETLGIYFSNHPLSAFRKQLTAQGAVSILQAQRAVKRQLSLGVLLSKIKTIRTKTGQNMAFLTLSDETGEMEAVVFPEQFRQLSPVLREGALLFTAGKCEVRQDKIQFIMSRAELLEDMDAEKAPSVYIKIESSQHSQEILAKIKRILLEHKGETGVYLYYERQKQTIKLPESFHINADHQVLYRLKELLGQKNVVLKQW
T3 sequence (P10443 whole entry): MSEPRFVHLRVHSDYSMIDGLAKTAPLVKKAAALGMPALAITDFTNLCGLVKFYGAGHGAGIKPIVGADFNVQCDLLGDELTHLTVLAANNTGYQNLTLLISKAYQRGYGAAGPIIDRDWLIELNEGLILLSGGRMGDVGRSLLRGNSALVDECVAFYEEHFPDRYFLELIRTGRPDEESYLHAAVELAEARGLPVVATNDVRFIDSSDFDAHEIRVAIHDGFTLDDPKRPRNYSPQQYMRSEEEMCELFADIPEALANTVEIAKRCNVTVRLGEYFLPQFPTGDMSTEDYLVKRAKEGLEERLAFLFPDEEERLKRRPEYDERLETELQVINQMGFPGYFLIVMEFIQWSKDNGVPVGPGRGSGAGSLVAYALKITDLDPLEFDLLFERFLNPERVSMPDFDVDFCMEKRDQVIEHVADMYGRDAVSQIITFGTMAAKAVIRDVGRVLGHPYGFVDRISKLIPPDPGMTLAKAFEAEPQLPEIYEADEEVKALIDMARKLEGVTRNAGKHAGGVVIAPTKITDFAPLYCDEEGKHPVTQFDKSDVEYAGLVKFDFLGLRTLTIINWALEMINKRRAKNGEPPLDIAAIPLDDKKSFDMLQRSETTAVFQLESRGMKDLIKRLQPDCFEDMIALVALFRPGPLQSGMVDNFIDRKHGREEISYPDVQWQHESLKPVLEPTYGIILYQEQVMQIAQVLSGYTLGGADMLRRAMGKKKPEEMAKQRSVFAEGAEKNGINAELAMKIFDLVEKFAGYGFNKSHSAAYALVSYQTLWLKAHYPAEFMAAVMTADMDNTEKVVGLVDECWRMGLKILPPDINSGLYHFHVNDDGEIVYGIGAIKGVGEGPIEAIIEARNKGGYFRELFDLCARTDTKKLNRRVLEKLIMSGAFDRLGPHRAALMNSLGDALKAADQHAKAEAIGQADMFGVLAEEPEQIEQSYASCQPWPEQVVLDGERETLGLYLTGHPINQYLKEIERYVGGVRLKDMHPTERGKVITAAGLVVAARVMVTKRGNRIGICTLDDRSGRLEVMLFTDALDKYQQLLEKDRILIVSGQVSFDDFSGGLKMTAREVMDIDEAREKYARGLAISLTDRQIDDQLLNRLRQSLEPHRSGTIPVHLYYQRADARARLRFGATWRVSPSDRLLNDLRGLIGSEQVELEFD

Row | Structure (SMILES) | Percent Enzymatic Inhibition B. subtilis pol IIIC (B. subtilis pol IIIC) | Percent Enzymatic Inhibition B. subtilis pol IIIE (B. subtilis pol IIIE) | Percent Enzymatic Inhibition E. coli pol IIIE (E. coli pol IIIE) | Minimum Inhibitory Concentration for Bacterial Growth, Bs [1] | Minimum Inhibitory Concentration for Bacterial Growth, Sa [2] | Minimum Inhibitory Concentration for Bacterial Growth, Sm (S. aureus Smith strain) | Minimum Inhibitory Concentration for Bacterial Growth, MRSA [3] | Minimum Inhibitory Concentration for Bacterial Growth, Efcl [4] | Minimum Inhibitory Concentration for Bacterial Growth, Efcm [5] | Minimum Inhibitory Concentration for Bacterial Growth, VRE [6] | Minimum Inhibitory Concentration for Bacterial Growth, Ec [7]
1 | CCCCc1cc(C=NNC(=O)c2cc(-c3ccccc3)n[nH]2)cc(CCCC)c1O [Compound 12] | Inactive | 7.6% | 7.2% | >80 µg/mL | >80 µg/mL | >80 µg/mL | >80 µg/mL | >80 µg/mL | >80 µg/mL | >80 µg/mL | >80 µg/mL
2 | O=C(NN=Cc1cc(Br)ccc1O)c1cc(-c2ccccc2)n[nH]1 [Compound 6] | 11.3% | 7.7% | 9.0% | >80 µg/mL | 10 µg/mL | >80 µg/mL | 40 µg/mL | 8 µg/mL | 10 µg/mL | 8 µg/mL | >80 µg/mL
3 | Cc1ccc(C=NNC(=O)c2cc(-c3ccccc3)n[nH]2)cc1 [Compound 11] | 1.3% | 16.7% | Inactive | >80 µg/mL | >80 µg/mL | >80 µg/mL | >80 µg/mL | >80 µg/mL | >80 µg/mL | >80 µg/mL | >80 µg/mL
4 | COc1cccc(-c2cc(C(=O)NN=Cc3cccc(O)c3)[nH]n2)c1 [Compound 10] | Inactive | 9.6% | Inactive | >80 µg/mL | >80 µg/mL | >80 µg/mL | >80 µg/mL | >80 µg/mL | >80 µg/mL | >80 µg/mL | >80 µg/mL
5 | COc1ccc(C=NNC(=O)c2cc(-c3ccc(Cl)cc3)n[nH]2)cc1OC [Compound 15] | Inactive | 13.7% | Inactive | >80 µg/mL | 8 µg/mL | >80 µg/mL | >80 µg/mL | >80 µg/mL | 40 µg/mL | >80 µg/mL | >80 µg/mL
6 | COc1cccc(C=NNC(=O)c2cc(-c3ccc(C)cc3)n[nH]2)c1O [Compound 8] | 19.7% | – | – | >80 µg/mL | >80 µg/mL | >80 µg/mL | >80 µg/mL | >80 µg/mL | >80 µg/mL | >80 µg/mL | >80 µg/mL
7 | CCN1C(=O)C(=NNC(=O)c2cc(-c3cccc(-c4ccccc4)c3)n[nH]2)c2ccccc21 [Compound 21] | – | – | – | >80 µg/mL | >80 µg/mL | >80 µg/mL | >80 µg/mL | >80 µg/mL | >80 µg/mL | >80 µg/mL | >80 µg/mL
8 | O=C(NN=Cc1ccccc1O)c1cc(-c2ccccc2)n[nH]1 [Compound 9] | – | – | – | >80 µg/mL | >80 µg/mL | >80 µg/mL | >80 µg/mL | >80 µg/mL | >80 µg/mL | >80 µg/mL | >80 µg/mL
9 | COc1ccc(-c2cc(C(=O)NN=Cc3ccccc3)[nH]n2)cc1 [Compound 13] | 2.9% | Inactive | 3.4% | >80 µg/mL | >80 µg/mL | >80 µg/mL | >80 µg/mL | >80 µg/mL | >80 µg/mL | >80 µg/mL | >80 µg/mL
10 | CCN1C(=O)C(=NNC(=O)c2cc(-c3ccccc3)n[nH]2)c2ccccc21 [Compound 20] | 0.2% | 0.5% | Inactive | – | – | – | – | – | – | – | –
